In patent publication US7384934B2, “Piperazine substituted aryl benzodiazepines” (Eli Lilly and Company, priority 2002, dated 2008) one finds Ki data, which are given here for 29 compounds.

Where a name gives a salt, the structure may show the parent alone.

By Ki is commonly meant the equilibrium dissociation constant of an inhibitor or competing ligand from its target.

The target in the experiment is T1, Dopamine D2 receptor (Homo sapiens, UniProt P14416).
T1 construct: purchased Receptor Biology (now owned by NEN) RBHD2CM
T1 sequence (P14416 1-414 isoform P14416-2): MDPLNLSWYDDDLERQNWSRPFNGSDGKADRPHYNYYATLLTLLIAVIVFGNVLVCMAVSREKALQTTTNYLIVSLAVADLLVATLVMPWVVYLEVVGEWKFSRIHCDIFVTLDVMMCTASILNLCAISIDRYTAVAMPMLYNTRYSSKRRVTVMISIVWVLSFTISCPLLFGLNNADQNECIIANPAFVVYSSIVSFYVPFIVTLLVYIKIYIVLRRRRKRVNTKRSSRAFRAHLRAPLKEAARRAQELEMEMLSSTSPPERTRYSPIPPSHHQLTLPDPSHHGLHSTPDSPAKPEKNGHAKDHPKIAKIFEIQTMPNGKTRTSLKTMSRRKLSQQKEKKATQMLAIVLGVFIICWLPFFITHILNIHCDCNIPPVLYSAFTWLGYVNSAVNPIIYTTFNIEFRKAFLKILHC
The experiment can be described thus: Dopamine D2 receptor binding assay ([125I]iodospiperone). Particulars: relative Ki scale of Table 5; read-out: Relative D2 Receptor Binding Affinity Ki. Here is the method:
The assay buffers used are 50 mM Tris-HCl pH 7.4, 120 mM NaCl, 5 mM KCl, 5 mM MgCl2, 1 mM EDTA for the Dopamine D2s receptor binding assay. […] The membranes used are from Receptor Biology (now owned by NEN), Cat # RBHD2CM for the D2 receptor.
Compounds are obtained as 10 mM stocks in 100% DMSO. They are diluted to 1 mM in 100% DMSO by adding 180 μL DMSO to 20 μL of stock in 96 well plates using a multidrop. […] This is done using a TECAN robot.
The radioligand is diluted in assay buffer to provide 0.1 nM for the D2 assay. Each vial of membranes is diluted up to 92 mL in assay buffer. The final assay volume is 250 μL consisting of 210 μl of diluted membranes, 20 μL of compound or 10% DMSO for total binding, and 20 μL of diluted radioligand. The compounds are transferred from drug dilution plates into coming 96 well assay plates using a 96 well Multimek pipettor. Radioligand and membranes are added to assay plates using multidrop pipettors. Non-specific binding is determined in wells containing a final concentration of 5 μM haloperidol. The final drug concentration range in half logs is from 10 μM down to 0.1 nM.
After addition of drug, membrane, and ligand, the plates are incubated for 2 hours at room temperature. During this time 96 well Millipore filter plates (MAFBNOB50) are soaked for a least 30 minutes with 200 μL per well of 0.5% polyethyleneimine.
The 0.5% PEI is removed from filterplate wells using a TiterTek MAP aspirator and 200 μL of the incubation mixture is transferred from the incubation plate to the filterplate after mixing. This transfer is done using the 96 tip Mutimek pipettor. After transfer to the filterplate filterplates are extracted and ished twice with 220 μL per well of cold buffer on the MAP aspirator. The peel away bottoms are removed from the filterplates and 60 μL per well of microscint 20 scintillation fluid is added per well using a multidrop. […]
For `COCC[C@H]1CN(C2=Nc3ccccc3Nc3cc(C)ccc32)CCN1` [Example 198, (S)-3-Methyl-11-[3-(2-methoxy-ethyl)-piperazin-1-yl]-5H-dibenzo[b,e][1,4]diazepine], the Ki was above 1000 nM.

For the compound `COCC[C@H]1CN(C2=Nc3ccccc3Nc3sc(C(F)(F)F)nc32)CCN1` [Example 314, (S)-10-[3-(2-Methoxy-ethyl)-piperazin-1-yl]-2-trifluoromethyl-4H-3-thia-1,4,9-triaza-benzo[f]azulene], the Ki is below 10 nM.

Consider `COC(C)C[C@H]1CN(C2=Nc3ccccc3Nc3sc(C(C)C)nc32)CCN1` (mixture of isomers) [Example 361, 10-[3(S)-(2(S)-Methoxy-propyl)-piperazin-1-yl]-2-isopropyl-4H-3-thia-1,4,9-triazabenzo[f]azulene and 10-[3(S)-(2(R)-Methoxy-propyl)-piperazin-1-yl]-2-isopropyl-4H-3-thia-1,4,9-triazabenzo[f]azulene], for which the Ki is below 10 nM.

Take `COCC[C@H]1CN(C2=Nc3ccccc3Nc3sc(C(F)F)nc32)CCN1C` [Example 336, (S)-10-[3-(2-Methoxy-ethyl)-4-methyl-piperazin-1-yl]-2-difluoromethyl 4H-3-thia-1,4,9-triaza-benzo[f]azulene]: the inhibition constant (Ki) is below 10 nM.

As to `CC(C)c1nc2c(s1)Nc1ccccc1N=C2N1CCN[C@@H](CC(C)(C)O)C1` [Example 367, (S)-1-[4-(2-Isopropyl-4H-3-thia-1,4,9-triazabenzo[f]azulene-10-yl)-piperazin-2-yl]-2-methylpropan-2-ol dihydrochloride], the Ki was below 10 nM.

In the case of `CCN1CCN(C2=Nc3ccccc3Nc3sc(C(C)C)nc32)C[C@@H]1CCOC` [Example 340, (S)-10-[4-Ethyl-3-(2-methoxyethyl)piperazin-1-yl]-2-isopropyl-4H-3-thia-1,4,9-triazabenzo[f]azulene dihydrochloride], the Ki lay within 10 to 100 nM.

In the case of `COCC[C@H]1CN(C2=Nc3ccccc3Nc3sc(C(F)(F)F)nc32)CCN1CCCO` [Example 355, (S)-3-[2-(2-Methoxy-ethyl)-4-(2-trifluoromethyl-4H-3-thia-1,4,9-triaza-benzo[f]azulene-10-yl)-piperazin-1-yl]-propan-1-ol], the Ki was 10 to 100 nM.

In the case of `COCC[C@H]1CN(C2=Nc3ccccc3Nc3sc(CCC(F)(F)F)nc32)CCN1` [Example 318, (S)-10-[3-(2-Methoxy-ethyl)-piperazin-1-yl]-2-(3,3,3-trifluoro-propyl)-4H-3-thia-1,4,9-triaza-benzo[f]azulene dihydrochloride], the inhibition constant Ki was below 10 nM.

For `CCN1CCN(C2=Nc3ccccc3Nc3sc(C(F)(F)F)nc32)C[C@@H]1CCOC` [Example 344, (S)-10-[4-Ethyl-3-(2-methoxy-ethyl)-piperazin-1-yl]-2-trifluoromethyl-4H-3-thia-1,4,9-triaza-benzo[f]azulene], the Ki is below 10 nM.

For `Cc1nc2c(s1)Nc1ccccc1N=C2N1CCN(C)[C@@H](CCO)C1` [Example 319, (S)-2-[1-Methyl-4-(2-methyl-4H-3-thia-1,4,9-triazabenzo[f]azulene-10-yl)piperazin-2-yl]ethanol dihydrochloride], the inhibition constant (Ki) is 10 to 100 nM.

Turning to `COCC[C@H]1CN(C2=Nc3ccccc3Nc3sc(C(F)(F)F)nc32)CCN1CCO` [Example 353], the inhibition constant (Ki) was 10 to 100 nM.

`COCC[C@H]1CN(C2=Nc3ccccc3Nc3sc(C(F)(F)F)nc32)CCN1CCCF` [Example 351, (S)-10-[4-(3-Fluoro-propyl)-3-(2-methoxy-ethyl)-piperazin-1-yl]-2-trifluoromethyl-4H-3-thia-1,4,9-triaza-benzo[f]azulene]: the Ki lay within 10 to 100 nM.

Regarding `CCOCC[C@H]1CN(C2=Nc3ccccc3Nc3sc(C)cc32)CCN1C` [Example 268, (S)-10-[3-(2-Ethoxyethyl)-4-methyl-piperazin-1-yl]-2-methyl-4H-3-thia-4,9-diazabenzo[f]azulene dihydrochloride], the inhibition constant (Ki) was in the range of 10 to 100 nM.

`COCC[C@H]1CN(C2=Nc3ccccc3Nc3sc(C(C)C)nc32)CCN1CCOC` [Example 343, (S)-10-[3,4-Bis(2-methoxyethyl)piperazin-11-yl]-2-isopropyl-4H-3-thia-1,4,9-triazabenzo[f]azulene dihydrochloride]: the inhibition constant Ki lay in the range of 100 to 1000 nM.

With `CCOC(=O)c1nc2c(s1)Nc1ccccc1N=C2N1CCN[C@@H](CCOC)C1` [Example 313, (S)-10-[3-(2-Methoxy-ethyl)-piperazin-1-yl]-4H-3-thia-1,4,9-triaza-benzo[f]azulene-2-carboxylic acid ethyl ester], the inhibition constant (Ki) is 100 to 1000 nM.

On to `CCOCC[C@H]1CN(C2=Nc3ccccc3Nc3sc(C(C)C)nc32)CCN1C` [Example 328, (S)-10-[3-(2-Ethoxyethyl)-4-methylpiperazin-1-yl]-2-isopropyl-4H-3-thia-1,4,9-triazabenzo[f]azulene dihydrochloride], for which the inhibition constant Ki fell in the range of 10 to 100 nM.

As for `COC(C)C[C@H]1CN(C2=Nc3ccccc3Nc3sc(C)cc32)CCN1C` (mixture of isomers) [Example 360, 10-[3(S)-(2(S)-Methoxypropyl)-4-methylpiperazin-1-yl]-2-methyl-4H-3-thia-4,9-diazabenzo[f]azulene dihydrochloride and 10-[3(S)-(2(R)-Methoxypropyl)-4-methylpiperazin-1-yl]-2-methyl-4H-3-thia-4,9-diazabenzo[f]azulene dihydrochloride], the inhibition constant (Ki) was in the range of 100 to 1000 nM.

As to `COCC[C@H]1CN(C2=Nc3ccccc3Nc3sc(C(F)F)nc32)CCN1` [Example 316, (S)-10-[3-(2-Methoxy-ethyl)-piperazin-1-yl]-2-difluoromethyl-4H-3-thia-1,49-triaza-benzo[f]azulene], the Ki is below 10 nM.

In the case of `CCCCc1nc2c(s1)Nc1ccccc1N=C2N1CCN(C)[C@@H](CCOC)C1` [Example 324, (S)-10-[3-(2-Methoxy-ethyl)-4-methyl-piperazin-1-yl]-2-butyl 4H-3-thia-1,4,9-triaza-benzo[f]azulene], the Ki is 10 to 100 nM.

On to `COCC[C@H]1CN(C2=Nc3ccccc3Nc3sc(CO)nc32)CCN1` [Example 312, (S)-10-[3-(2-Methoxy-ethyl)-piperazin-1-yl]-4H-3-thia-1,4,9-triaza-benzo[f]azulene-2-yl-methanol], for which the inhibition constant Ki was in the range of 100 to 1000 nM.

Regarding `CCOC(=O)c1nc2c(s1)Nc1ccccc1N=C2N1CCN(C)[C@@H](CCOC)C1` [Example 333, (S)-10-[3-(2-Methoxy-ethyl)-4-methyl-piperazin-1-yl]-4H-3-thia-1,4,9-triaza-benzo[f]azulene-2-carboxylic acid ethyl ester dihydrochloride], the Ki was 100 to 1000 nM.

For `CCOCC[C@H]1CN(C2=Nc3ccccc3Nc3sc(C)nc32)CCN1C` [Example 321, (S)-10-[3-(2-Ethoxyethyl)-4-methyl-piperazin-1-yl]-2-methyl-4H-3-thia-1,4,9-triazabenzo[f]azulene dihydrochloride], the Ki was 100 to 1000 nM.

In the case of `CC(C)c1nc2c(s1)Nc1ccccc1N=C2N1CCN(C)[C@@H](CC(C)(C)O)C1` [Example 368, (S)-1-[4-(2-Isopropyl-4H-3-thia-1,4,9-triazabenzo[f]azulene-10-yl)-1-methylpiperazin-2-yl]-2-methyl-propan-2-ol dihydrochloride], the Ki is below 10 nM.

As for `CCCc1nc2c(s1)Nc1ccccc1N=C2N1CCN(C)[C@@H](CCOC)C1` [Example 323, (S)-10-[3-(2-Methoxy-ethyl)-4-methyl-piperazin-1-yl]-2-propyl 4H-3-thia-1,4,9-triaza-benzo[f]azulene dihydrochloride], the Ki was in the range of 10 to 100 nM.

For `COCC[C@H]1CN(C2=Nc3ccccc3Nc3sc(C(F)(F)F)nc32)CCN1CCOCCO` [Example 357], the inhibitory constant (Ki) lay within 10 to 100 nM.

For `COCC[C@H]1CN(C2=Nc3ccccc3Nc3sc(C(F)(F)F)nc32)CCN1C` [Example 334, (S)-10-[3-(2-Methoxy-ethyl)-4-methyl-piperazin-1-yl]-2-trifluoromethyl-4H-3-thia-1,4,9-triaza-benzo[f]azulene], the inhibitory constant (Ki) was below 10 nM.

Turning to `COCC[C@H]1CN(C2=Nc3ccccc3Nc3sc(C)cc32)CCN1` [Example 242, (S)-10-[3-(2-Methoxyethyl)-piperazin-1-yl]-2-methyl-4H-3-thia-4,9-diazabenzo[f]azulene hydrochloride], the Ki is 10 to 100 nM.

Regarding `CCc1nc2c(s1)Nc1ccccc1N=C2N1CCN[C@@H](CCOC)C1` [Example 303, (S)-10-[3-(2-Methoxy-ethyl)-piperazin-1-yl]-2-ethyl-4H-3-thia-1,4,9-triaza-benzo[f]azulene], the inhibition constant Ki was below 10 nM.

Take `CC(C)c1nc2c(s1)Nc1ccccc1N=C2N1CCN(C)[C@@H](CCO)C1` [Example 326, (S)-2-[4-(2-Isopropyl-4H-3-thia-1,49-triazabenzo[f]azulene-10-yl)-1-methylpiperazin-2-yl]ethanol]: the inhibitory constant (Ki) is below 10 nM.
